Consider 9 compounds from ChEMBL document CHEMBL1201862, “PubChem BioAssay data set” (2004).

What all share (assay): NCI anticancer screen, dose series, 48 h
Assay [1] concerns DLD-1.
Assay [2] deals with PC-3.
The subject of assay [3] is K562.
The subject of assay [4] is SF-268.
Assay [5] concerns DMS-114.
The test system of assay [6] is OVCAR-3.
Assay [7] deals with U-251.
Assay [8] deals with SNB-19.
In assay [9] the test system is HOP-62.
The subject of assay [10] is RXF 393.
Assay [11] relates to IGROV-1.
Assay [12] deals with KM-20L2.
Assay [13] relates to ACHN.
The test system of assay [14] is SK-MEL-2.
Assay [15] concerns TK-10.
For assay [16], the system named is HCT-15.
Assay [17] concerns MCF7.
Assay [18] relates to HCC 2998.
Assay [19] relates to SF-295.
For assay [20], the system named is DMS-273.

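Five concentrations, 48 hours, 96-well plates. GI50 is the concentration that inhibits growth by half.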 Calls of active or inactive are those of the source. No stated cut-off is given here; in the data, active = GI50 up to about 1.1 µM and inactive = higher.

For the compound `CC1=NN(C(=O)c2ccccc2O)C(=O)/C1=C/c1ccc(O)cc1`, the GI50 in assay [1] was 0.151 µM (active); in assay [2] it was 0.368 µM (active); in assay [3], 0.0667 µM (active); in [4], 0.265 µM (active); in assay [5] it was 0.348 µM (active); in assay [6], 0.278 µM (active). The GI50 in assay [7] was 0.205 µM (active); in [8] it was 0.363 µM (active); in [9] it was 0.662 µM (active); in assay [10] it was 0.0601 µM (active); in assay [11], 0.14 µM (active); in assay [12] it was 36.5 µM (inactive). Also, the GI50 is 0.204 µM (active) in assay [13]; 2.13 µM (inactive) in assay [14]; 13 µM (inactive) in [15]; 0.485 µM in [16]; 0.382 µM (active) in assay [17]; 3.22 µM (inactive) in assay [18]. Moreover, the GI50 in assay [19] was 0.379 µM (active).

As to `COC(=O)N1C=Cc2c(c(C)c3c([nH]c4ccccc43)c2C)C1C` (stereo not drawn), the GI50 in assay [1] is 14.8 µM (inactive); in assay [3], 6.19 µM (inactive); in assay [4] it was 18.2 µM (inactive); in [5], 19.4 µM (inactive); in assay [6] it was 16.3 µM (inactive); in assay [7], 16 µM (inactive). Further, the GI50 was 18 µM (inactive) in assay [8]; 18.2 µM (inactive) in assay [9]; 25.2 µM (inactive) in assay [11]; 12.2 µM (inactive) in assay [12]; > 10 µM (inactive) in assay [13]; 18.3 µM (inactive) in [14]. For the same compound, the GI50 in assay [15] is 19.6 µM (inactive); in assay [16] it was 10.6 µM; in assay [18], 16.8 µM (inactive); in [20], 18 µM (inactive); in assay [19] it was 13.7 µM (inactive).

As to `NC(CCCCNCc1ccccc1)C(=O)O` (stereo not drawn), the GI50 in assay [1], in assay [3], in assay [4], in assay [5], in [6] and in assay [7] was > 100 µM (inactive) in each case. For the same compound, the GI50 in assay [8], in assay [9], in assay [11], in assay [12], in assay [13] and in assay [14] was > 100 µM (inactive) in each case. Further, the GI50 is > 100 µM (inactive) in assay [15]; > 100 µM in [16]; > 100 µM (inactive) in [18]; > 100 µM (inactive) in assay [20]; > 100 µM (inactive) in assay [19].

For `c1ccc2c(c1)nc1n2CSC1`, the GI50 in [1], in assay [3], in [4], in assay [5], in [6] and in [7] was > 100 µM (inactive) in each case. Moreover, the GI50 in assay [8], in assay [11], in assay [12], in [13], in assay [14] and in [15] was > 100 µM (inactive) in each case. Also, the values for the GI50 in assay [16], in assay [20] and in assay [19] were > 100 µM, > 100 µM (inactive) and > 100 µM (inactive), respectively.

As to `COC(=O)c1s/c(=N\C(=S)N(C)C)n(-c2ccccc2)c1C(=O)OC`, the GI50 was > 100 µM (inactive) in assay [3]; > 100 µM (inactive) in [4]; 70 µM (inactive) in [5]; > 100 µM (inactive) in assay [6]; > 100 µM (inactive) in assay [7]; > 100 µM (inactive) in assay [8]. Further, the GI50 in [9], in assay [10], in assay [11], in [12], in assay [13] and in assay [14] was > 100 µM (inactive) in each case. Further, the GI50 is > 100 µM (inactive) in assay [15]; > 100 µM in assay [16]; > 100 µM (inactive) in assay [18]; > 100 µM (inactive) in assay [20]; > 100 µM (inactive) in assay [19].

Consider `CC(=O)C1C(=O)C(=O)N(c2ccc(Cl)cc2C)C1=O` (stereo not drawn), for which the GI50 in [1], in [3], in assay [4], in [5], in assay [7] and in assay [8] was > 100 µM (inactive) in each case. The GI50 in assay [9], in [10], in [11], in assay [12], in assay [13] and in [14] was > 100 µM (inactive) each time. In addition, the GI50 is > 100 µM (inactive) in assay [15], > 100 µM in assay [16], > 100 µM (inactive) in [18] and > 100 µM (inactive) in assay [19].

As for `COc1ccc2c(c1)[n+]([O-])c(-c1cccc(Cl)c1)c(N)[n+]2[O-]`, the GI50 in assay [1] was 38.2 µM (inactive); in assay [3], 45.1 µM (inactive); in assay [4] it was 33.8 µM (inactive); in assay [5], 23.1 µM (inactive); in assay [6], 36.2 µM (inactive); in assay [7] it was 37.3 µM (inactive). Besides, the GI50 in assay [8] is > 100 µM (inactive); in [9] it was > 100 µM (inactive); in assay [10] it was 53.8 µM (inactive); in assay [11], 46.8 µM (inactive); in assay [12], 37.8 µM (inactive); in [13] it was 57.3 µM (inactive). Further, the GI50 in [14] is 18.7 µM (inactive); in assay [20], 33.6 µM (inactive); in assay [19] it was 97.1 µM (inactive).

Consider `Cc1ccc(S(=O)(=O)N/N=C(/c2nc3ccc([N+](=O)[O-])cc3nc2O)C(O)c2ccc(C(O)/C(=N\NS(=O)(=O)c3ccc(C)cc3)c3nc4ccc([N+](=O)[O-])cc4nc3O)cc2)cc1` (stereo not drawn), for which the GI50 in assay [1] was 33.3 µM (inactive); in assay [3], 13 µM (inactive); in assay [5], 5.98 µM (inactive); in assay [6], 61.2 µM (inactive); in assay [7] it was 67.6 µM (inactive); in assay [8] it was > 100 µM (inactive). For the same compound, the GI50 in assay [9] was 43.1 µM (inactive); in assay [10], > 100 µM (inactive); in assay [11] it was > 100 µM (inactive); in [12], 55.8 µM (inactive); in [13], 28.6 µM (inactive); in [14], 77.6 µM (inactive). Also, the GI50 in assay [15] was > 100 µM (inactive); in [18] it was 28 µM (inactive); in assay [20], 38.4 µM (inactive).

Turning to `COC(=O)C1=C(O)c2cc3c(cc2[C@H](c2cc(OC)c(OC)c(OC)c2)C1C(=O)OC)OCO3` (stereo partly drawn), the GI50 is 67 µM (inactive) in assay [1]; 72.1 µM (inactive) in assay [3]; 50.8 µM (inactive) in [4]; 25 µM (inactive) in assay [5]; 30.4 µM (inactive) in [6]; 82.8 µM (inactive) in [7]. Besides, the GI50 in [8] was > 100 µM (inactive); in assay [9] it was > 100 µM (inactive); in assay [10], 30.2 µM (inactive); in [11], 48.6 µM (inactive); in assay [12], > 100 µM (inactive); in assay [13] it was 22.1 µM (inactive). Further, the GI50 in assay [15] was 31.3 µM (inactive); in assay [16], > 100 µM; in assay [18] it was > 100 µM (inactive); in [20] it was 65.2 µM (inactive); in assay [19], 57 µM (inactive).
